In patent publication US6936585B2, “Corticotropin releasing factor 2 receptor agonists” (priority 2002, dated 2005):
Ends that are not written are not given here. Peptide text beside a SMILES is read from it.

Columns and labels:
CRF2R = biological target: T1, CRF2R (Homo sapiens, UniProt Q13324); assay: CRF2R agonist activation (EC50 / Emax), called comparative CRF binding; type: cell-based; settings: for Emax: read-out: CRF2R Emax; for EC50: read-out: CRF2R EC50
T1 sequence (Q13324 1-411): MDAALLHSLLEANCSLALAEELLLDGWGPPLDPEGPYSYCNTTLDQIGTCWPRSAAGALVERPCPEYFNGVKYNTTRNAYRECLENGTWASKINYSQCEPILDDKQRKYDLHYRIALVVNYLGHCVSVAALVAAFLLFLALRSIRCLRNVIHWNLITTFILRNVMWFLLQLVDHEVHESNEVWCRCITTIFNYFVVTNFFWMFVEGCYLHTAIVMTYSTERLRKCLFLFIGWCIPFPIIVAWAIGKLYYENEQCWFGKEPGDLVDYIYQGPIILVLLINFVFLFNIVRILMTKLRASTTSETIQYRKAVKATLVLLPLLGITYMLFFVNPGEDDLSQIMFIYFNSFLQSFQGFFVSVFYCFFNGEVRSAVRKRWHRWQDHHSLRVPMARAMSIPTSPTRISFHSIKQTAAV
Outline: (§1)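 Cells expressing full-length human CRF1R or CRF2R were exposed to peptide or vehicle control, and receptor activation was gauged as cAMP induction. cAMP was measured in cell lysates or via a cAMP-responsive element driving a reporter gene such as luciferase, CAT, GFP or alkaline phosphatase.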

CRF1R = biological target: T2, CRF1R (Homo sapiens, UniProt P34998); assay: CRF1R agonist activation (EC50 / Emax), called comparative CRF binding; type: cell-based; settings: for Emax: read-out: CRF1R Emax; for EC50: read-out: CRF1R EC50
T2 sequence (P34998 24-415): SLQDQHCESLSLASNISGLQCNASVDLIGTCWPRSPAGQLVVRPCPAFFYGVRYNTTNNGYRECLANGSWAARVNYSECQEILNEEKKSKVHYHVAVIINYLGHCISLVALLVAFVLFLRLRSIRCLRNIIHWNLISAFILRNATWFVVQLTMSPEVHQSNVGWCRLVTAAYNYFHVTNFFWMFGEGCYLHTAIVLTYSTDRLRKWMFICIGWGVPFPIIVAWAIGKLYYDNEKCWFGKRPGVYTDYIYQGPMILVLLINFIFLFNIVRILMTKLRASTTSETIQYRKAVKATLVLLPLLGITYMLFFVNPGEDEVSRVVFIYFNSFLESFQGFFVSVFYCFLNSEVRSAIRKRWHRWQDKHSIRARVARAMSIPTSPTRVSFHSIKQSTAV
Outline: as §1

Row | Molecule | Emax (CRF2R) [%] | Emax (CRF1R) [%] | EC50 (CRF2R) [nM] | EC50 (CRF1R) [nM]
1 | HHHHHHIVLSLDVPIGLLQILLEQARARAAREQATTNARILARN-NH2 [compound 296] | 65 | 4 |  | 
2 | CC[C@H](C)[C@H](N)C(=O)N[C@H](C(=O)N[C@@H](CC(C)C)C(=O)N[C@@H](CO)C(=O)N[C@@H](CC(C)C)C(=O)N[C@@H](CC(=O)O)C(=O)N[C@H](C(=O)N1CCC[C@H]1C(=O)N[C@H](C(=O)NCC(=O)N[C@@H](CC(C)C)C(=O)N[C@@H](CC(C)C)C(=O)N[C@@H](CCC(N)=O)C(=O)N[C@H](C(=O)N[C@@H](CC(C)C)C(=O)N[C@@H](CC(C)C)C(=O)N[C@@H](CCC(=O)O)C(=O)N[C@@H](CCC(N)=O)C(=O)N[C@@H](C)C(=O)N[C@@H](C)C(=O)N[C@@H](C)C(=O)N[C@@H](CCCNC(=N)N)C(=O)N[C@@H](CCC(=O)O)C(=O)N[C@@H](CCC(N)=O)C(=O)N[C@@H](C)C(=O)N[C@H](C(=O)N[C@H](C(=O)N[C@@H](CC(N)=O)C(=O)N[C@@H](C)C(=O)N[C@@H](CCCNC(=N)N)C(=O)N[C@H](C(=O)N[C@@H](CC(C)C)C(=O)N[C@@H](C)C(=O)N[C@@H](CCCNC(=N)N)C(=O)N[C@H](C(N)=O)C(C)C)[C@@H](C)CC)[C@@H](C)O)[C@@H](C)O)[C@@H](C)CC)[C@@H](C)CC)C(C)C)C(C)C [compound 139] (H-IVLSLDVPIGLLQILLEQAAAREQATTNARILARV-NH2; N-terminus assumed) | 60 | 4 | 42.6 | > 100
3 | CC[C@H](C)[C@H](N)C(=O)N[C@H](C(=O)N[C@@H](CC(C)C)C(=O)N[C@@H](CO)C(=O)N[C@@H](CC(C)C)C(=O)N[C@@H](CC(=O)O)C(=O)N[C@H](C(=O)N1CCC[C@H]1C(=O)N[C@H](C(=O)NCC(=O)N[C@@H](CC(C)C)C(=O)N[C@@H](CC(C)C)C(=O)N[C@@H](CCC(N)=O)C(=O)N[C@H](C(=O)N[C@@H](CC(C)C)C(=O)N[C@@H](CC(C)C)C(=O)N[C@@H](CCC(=O)O)C(=O)N[C@@H](CCCCN)C(=O)N[C@@H](C)C(=O)N[C@@H](C)C(=O)N[C@@H](C)C(=O)N[C@@H](CCC(=O)O)C(=O)N[C@@H](C)C(=O)N[C@@H](CCC(=O)O)C(=O)N[C@@H](C)C(=O)N[C@@H](C)C(=O)N[C@@H](C)C(=O)N[C@@H](CCCCN)C(=O)N[C@@H](C)C(=O)N[C@@H](C)C(=O)N[C@@H](CCC(N)=O)C(=O)N[C@@H](CCC(=O)O)C(=O)N[C@@H](CCC(N)=O)C(=O)N[C@H](C(=O)N[C@@H](CC(C)C)C(=O)N[C@@H](C)C(=O)N[C@@H](Cc1c[nH]cn1)C(=O)N[C@H](C(N)=O)C(C)C)[C@@H](C)CC)[C@@H](C)CC)[C@@H](C)CC)C(C)C)C(C)C [compound 366] (H-IVLSLDVPIGLLQILLEKAAAEAEAAAKAAQEQILAHV-NH2) | 46 | 9 |  | 
4 | CC[C@H](C)[C@H](NC(=O)[C@H](C)NC(=O)[C@H](CC(N)=O)NC(=O)[C@H](CCC(N)=O)NC(=O)[C@H](CCC(=O)O)NC(=O)[C@H](C)NC(=O)[C@H](CCCNC(=N)N)NC(=O)[C@H](CCC(=O)O)NC(=O)[C@H](CCCNC(=N)N)NC(=O)[C@H](CCC(N)=O)NC(=O)[C@H](CO)NC(=O)[C@H](CCC(N)=O)NC(=O)[C@@H](NC(=O)[C@H](CCCNC(=N)N)NC(=O)[C@H](C)NC(=O)[C@H](CC(C)C)NC(=O)[C@H](CCC(=O)O)NC(=O)[C@H](CC(C)C)NC(=O)[C@H](CC(C)C)NC(=O)[C@@H](NC(=O)[C@H](CCCNC(=N)N)NC(=O)[C@H](CC(C)C)NC(=O)[C@H](CC(C)C)NC(=O)[C@H](CC(C)C)NC(=O)[C@H](CC(C)C)NC(=O)[C@@H]1CCCN1C(=O)[C@H](CC(C)C)NC(=O)[C@H](CC(=O)O)NC(=O)[C@@H](NC(=O)[C@H](CO)NC(=O)[C@H](CC(C)C)NC(=O)[C@H](CO)NC(=O)[C@@H]1CCCN1C(=O)[C@H](CC(N)=O)NC(=O)[C@@H](N)CC(=O)O)[C@@H](C)CC)[C@@H](C)O)[C@@H](C)O)C(=O)N[C@H](C(=O)N[C@@H](Cc1ccccc1)C(=O)N[C@@H](C)C(=O)N[C@@H](CO)C(=O)N[C@H](C(N)=O)C(C)C)[C@@H](C)CC [compound 174] (H-DNPSLSIDLPLLLLRTLLELARTQSQRERAEQNAIIFASV-NH2; N-terminus assumed) | 97.2 | 29.1 |  | 
5 | CC[C@H](C)[C@H](N)C(=O)N[C@H](C(=O)N[C@@H](CC(C)C)C(=O)N[C@@H](CO)C(=O)N[C@@H](CC(C)C)C(=O)N[C@@H](CC(=O)O)C(=O)N[C@H](C(=O)N1CCC[C@H]1C(=O)N[C@H](C(=O)NCC(=O)N[C@@H](CC(C)C)C(=O)N[C@@H](CC(C)C)C(=O)N[C@@H](CCC(N)=O)C(=O)N[C@H](C(=O)N[C@@H](CC(C)C)C(=O)N[C@@H](CC(C)C)C(=O)N[C@@H](CCC(=O)O)C(=O)N[C@@H](CCC(N)=O)C(=O)N[C@@H](C)C(=O)N[C@@H](CCCNC(=N)N)C(=O)N[C@@H](Cc1c[nH]cn1)C(=O)N[C@@H](C)C(=O)N[C@@H](C)C(=O)N[C@@H](C)C(=O)N[C@@H](Cc1c[nH]cn1)C(=O)N[C@@H](C)C(=O)N[C@@H](C)C(=O)N[C@@H](C)C(=O)N[C@@H](Cc1c[nH]cn1)C(=O)N[C@@H](C)C(=O)N[C@@H](CCC(N)=O)C(=O)N[C@@H](C)C(=O)N[C@@H](Cc1c[nH]cn1)C(=O)N[C@H](C(=O)N[C@@H](CC(C)C)C(=O)N[C@@H](C)C(=O)N[C@@H](Cc1c[nH]cn1)C(=O)N[C@H](C(N)=O)C(C)C)[C@@H](C)CC)[C@@H](C)CC)[C@@H](C)CC)C(C)C)C(C)C [compound 367] (H-IVLSLDVPIGLLQILLEQARHAAAHAAAHAQAHILAHV-NH2) | 18 | 6 | ≥ 100 | ≥ 1000
6 | CC[C@H](C)[C@H](N)C(=O)N[C@H](C(=O)N[C@@H](CC(C)C)C(=O)N[C@@H](CO)C(=O)N[C@@H](CC(C)C)C(=O)N[C@@H](CC(=O)O)C(=O)N[C@H](C(=O)N1CCC[C@H]1C(=O)N[C@H](C(=O)NCC(=O)N[C@@H](CC(C)C)C(=O)N[C@@H](CC(C)C)C(=O)N[C@@H](CCC(N)=O)C(=O)N[C@H](C(=O)N[C@@H](CC(C)C)C(=O)N[C@H](C(=O)N[C@@H](CCC(=O)O)C(=O)N[C@H](C(=O)N[C@@H](CCC(=O)O)C(=O)N[C@@H](CCCCN)C(=O)N[C@@H](CCC(N)=O)C(=O)N[C@@H](CCC(=O)O)C(=O)N[C@@H](CCCCN)C(=O)N[C@@H](CCC(=O)O)C(=O)N[C@@H](CCCCN)C(=O)N[C@@H](CCC(N)=O)C(=O)N[C@@H](CCC(N)=O)C(=O)N[C@@H](C)C(=O)N[C@@H](C)C(=O)N[C@@H](CC(N)=O)C(=O)N[C@@H](CC(N)=O)C(=O)N[C@@H](CCCNC(=N)N)C(=O)N[C@@H](CC(C)C)C(=O)N[C@@H](CC(C)C)C(=O)N[C@@H](CC(C)C)C(=O)N[C@@H](CC(=O)O)C(=O)N[C@H](C(=O)N[C@H](C(N)=O)[C@@H](C)CC)[C@@H](C)O)[C@@H](C)CC)[C@@H](C)CC)[C@@H](C)CC)[C@@H](C)CC)C(C)C)C(C)C [compound 154] (H-IVLSLDVPIGLLQILIEIEKQEKEKQQAANNRLLLDTI-NH2; N-terminus assumed) | 100 | 7 |  | 
7 | SQEPPISLDLPTQLLREVLEMTKADQLAQQAHSNRKLLDIA-NH2 [compound 105] | 9.15 | 5.2 |  | 
